# Test results published in patent US9187472B2 (AbbVie Inc., priority 2012, dated 2015).
# pIC50: −log10 of the molar value.
# Tests used:
# [1] = molecular target: NAMPT (human, recombinant, C-terminally His-tagged) (Homo sapiens, UniProt P43490); test: Time-Resolved Fluorescence Resonance Energy Transfer (TR-FRET) Binding Assay of NAMPT; settings: without substrates; 6.8 nM NAMPT, 200 nM probe, 3 hours equilibration
# Procedure, shortened: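 11-pt half-log compound series; final 6.8 nM NAMPT, 200 nM OG488 nicotinamide-competitive probe, 1 nM Tb-anti-His Ab, 2% DMSO, HEPES pH 7.5/NaCl/MgCl2/DTT/glycerol buffer. 3 h RT equilibration. Em520/Em495 ratio (Ex 337 nm), control-normalized, 4-parameter fit → IC50.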
# NAMPT = NAMPT (Homo sapiens, UniProt P43490); test: TR-FRET Binding Assay of NAMPT with PRPP; settings: with 200 μM PRPP and 2.5 mM ATP; 2 nM NAMPT, 2 nM probe, 16 hours equilibration
# Sequence of NAMPT (P43490 whole entry): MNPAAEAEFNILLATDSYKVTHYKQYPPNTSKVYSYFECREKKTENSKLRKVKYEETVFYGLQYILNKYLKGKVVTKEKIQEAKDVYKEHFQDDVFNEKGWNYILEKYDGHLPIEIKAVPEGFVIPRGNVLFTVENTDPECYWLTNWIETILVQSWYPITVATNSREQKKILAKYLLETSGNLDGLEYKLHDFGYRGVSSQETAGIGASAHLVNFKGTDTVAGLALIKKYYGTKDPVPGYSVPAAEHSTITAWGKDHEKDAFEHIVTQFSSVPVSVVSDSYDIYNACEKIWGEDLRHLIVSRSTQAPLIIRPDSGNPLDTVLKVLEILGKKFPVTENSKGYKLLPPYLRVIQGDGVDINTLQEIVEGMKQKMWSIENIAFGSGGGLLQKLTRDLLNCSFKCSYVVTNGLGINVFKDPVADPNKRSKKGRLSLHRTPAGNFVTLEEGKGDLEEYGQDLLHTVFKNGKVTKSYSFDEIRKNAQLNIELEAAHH
# Procedure, shortened: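 TR-FRET probe-displacement binding with 2 nM NAMPT, 2 nM probe and 1 nM Tb-anti-His antibody, run in the presence of 200 μM PRPP and 2.5 mM ATP at 2% DMSO. Equilibrated 16 hours before reading so test compounds could undergo enzymatic modification.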
# PC3 cells = test: NAMPT Cell Proliferation Assay; assay type: cell-based; settings: Homo sapiens, PC-3, 120 h, 5 days incubation, cell viability by Cell Titer Glo
# Procedure, shortened: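 Cell Titer Glo viability after 5-day exposure (37° C, 5% CO2); PC3, 500 cells/well, RPMI + 10% heat-inactivated FBS, overnight attachment before dosing. Dose range 10 μM to 1×10^−5 μM, 10-fold steps. IC50 = sigmoidal fit of % inhibition.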
# Sequence of NAMPT (human, recombinant, C-terminally His-tagged) (P43490 whole entry): as above
SMILES,pIC50 [1],pIC50 (NAMPT),pIC50 (PC3 cells)
"CC1(Cn2cc(-c3ccc(C(=O)NCc4ccn5ccnc5c4)s3)cn2)CCNCC1 [Example 789, N-(imidazo[1,2-a]pyridin-7-ylmethyl)-5-{1-[(4-methylpiperidin-4-yl)methyl]-1H-pyrazol-4-yl}thiophene-2-carboxamide]",7.66,9.36,7.16
"O=C(NCc1ccn2ccnc2c1)c1ccc(-c2cnn(CC3(F)CCOCC3)c2)o1 [Example 790, 5-{1-[(4-fluorotetrahydro-2H-pyran-4-yl)methyl]-1H-pyrazol-4-yl}-N-(imidazo[1,2-a]pyridin-7-ylmethyl)furan-2-carboxamide]",7.10,9.23,8.59
"O=C(NCc1ccn2ccnc2c1)c1ccc(C2=CCN(S(=O)(=O)c3ccccc3)CC2)o1 [Example 801, N-(imidazo[1,2-a]pyridin-7-ylmethyl)-5-[1-(phenylsulfonyl)-1,2,3,6-tetrahydropyridin-4-yl]furan-2-carboxamide]",6.06,9.00,7.24
"O=C(NCc1ccn2ccnc2c1)c1ccc(C2=CCN(C(=O)c3ccccc3F)CC2)o1 [Example 803, 5-[1-(2-fluorobenzoyl)-1,2,3,6-tetrahydropyridin-4-yl]-N-(imidazo[1,2-a]pyridin-7-ylmethyl)furan-2-carboxamide]",6.50,9.00,7.75
"CC(C)C(=O)N1CCC(c2ncc(C(=O)NCc3ccn4ccnc4c3)s2)C1 (stereo not drawn) [Example 805, N-(imidazo[1,2-a]pyridin-7-ylmethyl)-2-[1-(2-methylpropanoyl)pyrrolidin-3-yl]-1,3-thiazole-5-carboxamide]",5.41,8.95,5.11
"CC(C)CC(=O)N1CCC(c2ncc(C(=O)NCc3ccn4ccnc4c3)s2)C1 (stereo not drawn) [Example 806, N-(imidazo[1,2-a]pyridin-7-ylmethyl)-2-[1-(3-methylbutanoyl)pyrrolidin-3-yl]-1,3-thiazole-5-carboxamide]",5.56,9.27,5.85
"CC(C)(C)OC(=O)N1CCN(CCn2cc(-c3ccc(C(=O)NCc4ccn5ccnc5c4)s3)cn2)CC1 [Example 808, tert-butyl 4-[2-(4-{5-[(imidazo[1,2-a]pyridin-7-ylmethyl)carbamoyl]thiophen-2-yl}-1H-pyrazol-1-yl)ethyl]piperazine-1-carboxylate]",7.03,9.25,8.96
"O=C(NCc1ccn2ccnc2c1)c1ccc(-c2cnn(CCN3CCNCC3)c2)s1 [Example 809, N-(imidazo[1,2-a]pyridin-7-ylmethyl)-5-{1-[2-(piperazin-1-yl)ethyl]-1H-pyrazol-4-yl}thiophene-2-carboxamide]",7.02,9.20,7.48
"O=C(NCc1ccc2ncnn2c1)c1ccc(-c2cnn(CC3(F)CCOCC3)c2)o1 [Example 810, 5-{1-[(4-fluorotetrahydro-2H-pyran-4-yl)methyl]-1H-pyrazol-4-yl}-N-([1,2,4]triazolo[1,5-a]pyridin-6-ylmethyl)furan-2-carboxamide]",6.32,7.90,6.49
"CC(C)C(=O)N1CCC(c2ccc(C(=O)NCc3cn4ccnc4cn3)cc2)CC1 [Example 811, N-(imidazo[1,2-a]pyrazin-6-ylmethyl)-4-[1-(2-methylpropanoyl)piperidin-4-yl]benzamide]",7.00,8.54,7.94
"O=C(NCc1cn2ccnc2cn1)c1ccc(C2CCN(C(=O)c3ccc(F)cc3)CC2)cc1 [Example 812, 4-[1-(4-fluorobenzoyl)piperidin-4-yl]-N-(imidazo[1,2-a]pyrazin-6-ylmethyl)benzamide]",7.10,8.59,7.41

# Results, then the compound that gave them:
pIC50 [1],pIC50 (NAMPT),pIC50 (PC3 cells),SMILES
7.35,9.32,8.12,"O=C(NCc1ccn2ccnc2c1)c1ccc(C2CCN(C(=O)c3cccs3)C2)s1 (stereo not drawn) [Example 786, N-(imidazo[1,2-a]pyridin-7-ylmethyl)-5-[1-(thiophen-2-ylcarbonyl)pyrrolidin-3-yl]thiophene-2-carboxamide]"
7.26,9.32,8.17,"CC(C)(C)C(=O)N1CCC(c2ccc(C(=O)NCc3ccn4ccnc4c3)s2)C1 (stereo not drawn) [Example 787, 5-[1-(2,2-dimethylpropanoyl)pyrrolidin-3-yl]-N-(imidazo[1,2-a]pyridin-7-ylmethyl)thiophene-2-carboxamide]"
7.09,9.17,8.26,"CC(C)(C)CC(=O)N1CCC(c2ccc(C(=O)NCc3ccn4ccnc4c3)s2)C1 (stereo not drawn) [Example 788, 5-[1-(3,3-dimethylbutanoyl)pyrrolidin-3-yl]-N-(imidazo[1,2-a]pyridin-7-ylmethyl)thiophene-2-carboxamide]"
7.33,8.94,9.05,"CCC(C)(C)C(=O)N1CCC(c2ccc(C(=O)NCc3ccn4ccnc4c3)s2)C1 (stereo not drawn) [Example 791, 5-[1-(2,2-dimethylbutanoyl)pyrrolidin-3-yl]-N-(imidazo[1,2-a]pyridin-7-ylmethyl)thiophene-2-carboxamide]"
6.94,9.30,8.02,"O=C(NCc1ccn2ccnc2c1)c1ccc(C2CCN(C(=O)c3cnccn3)C2)s1 (stereo not drawn) [Example 792, N-(imidazo[1,2-a]pyridin-7-ylmethyl)-5-[1-(pyrazin-2-ylcarbonyl)pyrrolidin-3-yl]thiophene-2-carboxamide]"
7.64,9.40,8.99,"Cc1ccsc1C(=O)N1CCC(c2ccc(C(=O)NCc3ccn4ccnc4c3)s2)C1 (stereo not drawn) [Example 793, N-(imidazo[1,2-a]pyridin-7-ylmethyl)-5-{1-[(3-methylthiophen-2-yl)carbonyl]pyrrolidin-3-yl}thiophene-2-carboxamide]"
7.54,9.33,9.05,"Cc1ccccc1C(=O)N1CCC(c2ccc(C(=O)NCc3ccn4ccnc4c3)s2)C1 (stereo not drawn) [Example 794, N-(imidazo[1,2-a]pyridin-7-ylmethyl)-5-[1-(2-methylbenzoyl)pyrrolidin-3-yl]thiophene-2-carboxamide]"
7.05,9.12,8.21,"CC1(C(=O)N2CCC(c3ccc(C(=O)NCc4ccn5ccnc5c4)s3)C2)CC1 (stereo not drawn) [Example 795, N-(imidazo[1,2-a]pyridin-7-ylmethyl)-5-{1-[(1-methylcyclopropyl)carbonyl]pyrrolidin-3-yl}thiophene-2-carboxamide]"
7.04,9.31,8.33,"O=C(NCc1ccn2ccnc2c1)c1ccc(C2CCN(C(=O)CCC(F)(F)F)C2)s1 (stereo not drawn) [Example 796, N-(imidazo[1,2-a]pyridin-7-ylmethyl)-5-[1-(4,4,4-trifluorobutanoyl)pyrrolidin-3-yl]thiophene-2-carboxamide]"
7.01,9.17,8.16,"Cc1noc(C)c1C(=O)N1CCC(c2ccc(C(=O)NCc3ccn4ccnc4c3)s2)C1 (stereo not drawn) [Example 797, 5-{1-[(3,5-dimethyl-1,2-oxazol-4-yl)carbonyl]pyrrolidin-3-yl}-N-(imidazo[1,2-a]pyridin-7-ylmethyl)thiophene-2-carboxamide]"
7.02,9.33,8.02,"O=C(NCc1ccn2ccnc2c1)c1ccc(C2CCN(C(=O)c3cccnc3)C2)s1 (stereo not drawn) [Example 798, N-(imidazo[1,2-a]pyridin-7-ylmethyl)-5-[1-(pyridin-3-ylcarbonyl)pyrrolidin-3-yl]thiophene-2-carboxamide]"
6.99,9.39,8.16,"Cn1nccc1C(=O)N1CCC(c2ccc(C(=O)NCc3ccn4ccnc4c3)s2)C1 (stereo not drawn) [Example 799, N-(imidazo[1,2-a]pyridin-7-ylmethyl)-5-{1-[(1-methyl-1H-pyrazol-5-yl)carbonyl]pyrrolidin-3-yl}thiophene-2-carboxamide]"
7.09,9.03,8.21,"CC(C)C(C)C(=O)N1CCC(c2ccc(C(=O)NCc3ccn4ccnc4c3)s2)C1 (stereo not drawn) [Example 800, 5-[1-(2,3-dimethylbutanoyl)pyrrolidin-3-yl]-N-(imidazo[1,2-a]pyridin-7-ylmethyl)thiophene-2-carboxamide]"
7.44,9.27,8.23,"O=C(NCc1ccn2ccnc2c1)c1cnc(C2CCN(C(=O)c3ccccc3F)CC2)s1 [Example 802, 2-[1-(2-fluorobenzoyl)piperidin-4-yl]-N-(imidazo[1,2-a]pyridin-7-ylmethyl)-1,3-thiazole-5-carboxamide]"
6.54,9.35,7.30,"O=C(NCc1ccn2ccnc2c1)c1cnc(C2CCN(C(=O)c3ccccc3F)C2)s1 (stereo not drawn) [Example 804, 2-[1-(2-fluorobenzoyl)pyrrolidin-3-yl]-N-(imidazo[1,2-a]pyridin-7-ylmethyl)-1,3-thiazole-5-carboxamide]"
6.20,9.29,7.00,"O=C(NCc1ccn2ccnc2c1)c1cnc(C2CCN(C(=O)c3ccccc3)C2)s1 (stereo not drawn) [Example 807, 2-(1-benzoylpyrrolidin-3-yl)-N-(imidazo[1,2-a]pyridin-7-ylmethyl)-1,3-thiazole-5-carboxamide]"
